Results: PubChem BioAssay AID2060912 (Molecular Pharmacology Branch, DTP, NCI, 2025)
pIC50: −log10 of the molar value.

System: HUVEC/MSC spheroids viability
Experiment: Human HUVEC/MSC cell line growth inhibition [KRAS2];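 for viability, T/C: percent of DMSO vehicle control luminescence so 100% = untreated viability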
Conditions: for pIC50: curve of first compound; for viability, T/C: stronger effect = lower value; active = viability on the fitted dose curve at most 10% of control; inactive = the rest
In short: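 Spheroids of pooled-donor HUVEC and hMSC (passage ≤5) without tumour cells were treated with KRAS-pathway inhibitors alone and combined with targeted agents. Top concentration was at or near clinical Cmax, or 10 microM when Cmax was unknown, descending in half-log steps.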

[1] = second compound 0.0316 µM, first compound 0.0316 µM
[2] = second compound 0.0316 µM, first compound 0.1 µM
[3] = second compound 0.1 µM, first compound 0.0316 µM
[4] = second compound 0.1 µM, first compound 0.1 µM
[5] = second compound 0.316 µM, first compound 0.0316 µM
[6] = second compound 0.316 µM, first compound 0.1 µM
[7] = second compound 1 µM, first compound 0.0316 µM
[8] = second compound 1 µM, first compound 0.1 µM
[9] = second compound 3.16 µM, first compound 0.0316 µM
[10] = second compound 3.16 µM, first compound 0.1 µM
[11] = second compound 10 µM, first compound 0.0316 µM
[12] = second compound 10 µM, first compound 0.1 µM

CC(=O)OC12COC1CC(O)C1(C)C(=O)C(O)C3=C(C)C(OC(=O)C(O)C(NC(=O)OC(C)(C)C)c4ccccc4)CC(O)(C(OC(=O)c4ccccc4)C21)C3(C)C (stereo unspecified) + CC1OCC2(CCN(c3cnc(Sc4ccnc(N)c4Cl)c(N)n3)CC2)C1N
inactive: viability, T/C (second compound 0.0316 µM, first compound 0.00949 µM) 58% | viability, T/C (second compound 0.0316 µM, first compound 0.03 µM) 65.1% | viability, T/C (second compound 0.0316 µM, first compound 0.0949 µM) 67.3% | viability, T/C (second compound 0.0316 µM, first compound 0.3 µM) 58.4% | viability, T/C (second compound 0.0316 µM, first compound 0.949 µM) 68.1% | viability, T/C (second compound 0.0316 µM, first compound 3 µM) 73.6% | viability, T/C (second compound 0.1 µM, first compound 0.00949 µM) 67% | viability, T/C (second compound 0.1 µM, first compound 0.03 µM) 66% | viability, T/C (second compound 0.1 µM, first compound 0.0949 µM) 71.4% | viability, T/C (second compound 0.1 µM, first compound 0.3 µM) 57.9% | viability, T/C (second compound 0.1 µM, first compound 0.949 µM) 73.2% | viability, T/C (second compound 0.1 µM, first compound 3 µM) 72.5% | viability, T/C (second compound 0.316 µM, first compound 0.00949 µM) 56.1% | viability, T/C (second compound 0.316 µM, first compound 0.03 µM) 63.3% | viability, T/C (second compound 0.316 µM, first compound 0.0949 µM) 50% | viability, T/C (second compound 0.316 µM, first compound 0.3 µM) 53.6% | viability, T/C (second compound 0.316 µM, first compound 0.949 µM) 62.5% | viability, T/C (second compound 0.316 µM, first compound 3 µM) 68.4% | viability, T/C (second compound 1 µM, first compound 0.00949 µM) 67.2% | viability, T/C (second compound 1 µM, first compound 0.03 µM) 58% | viability, T/C (second compound 1 µM, first compound 0.0949 µM) 47.1% | viability, T/C (second compound 1 µM, first compound 0.3 µM) 52.1% | viability, T/C (second compound 1 µM, first compound 0.949 µM) 59% | viability, T/C (second compound 1 µM, first compound 3 µM) 58.5% | viability, T/C (second compound 3.16 µM, first compound 0.00949 µM) 49.8% | viability, T/C (second compound 3.16 µM, first compound 0.03 µM) 59.5% | viability, T/C (second compound 3.16 µM, first compound 0.0949 µM) 49.8% | viability, T/C (second compound 3.16 µM, first compound 0.3 µM) 54.2% | viability, T/C (second compound 3.16 µM, first compound 0.949 µM) 48% | viability, T/C (second compound 3.16 µM, first compound 3 µM) 56.2% | viability, T/C (second compound 10 µM, first compound 0.00949 µM) 55.6% | viability, T/C (second compound 10 µM, first compound 0.03 µM) 61.8% | viability, T/C (second compound 10 µM, first compound 0.0949 µM) 41.7% | viability, T/C (second compound 10 µM, first compound 0.3 µM) 50.3% | viability, T/C (second compound 10 µM, first compound 0.949 µM) 50.9% | viability, T/C (second compound 10 µM, first compound 3 µM) 46.7%
< 5.52: pIC50 (second compound 0.0316 µM) | pIC50 (second compound 0.1 µM) | pIC50 (second compound 0.316 µM) | pIC50 (second compound 1 µM) | pIC50 (second compound 3.16 µM)
6.75: pIC50 (second compound 10 µM)

CN(C)C/C=C/C(=O)Nc1cc2c(Nc3ccc(F)c(Cl)c3)ncnc2cc1O[C@H]1CCOC1 + CC1OCC2(CCN(c3cnc(Sc4ccnc(N)c4Cl)c(N)n3)CC2)C1N
< 7.00: pIC50 (second compound 0.0316 µM) | pIC50 (second compound 0.1 µM) | pIC50 (second compound 0.316 µM) | pIC50 (second compound 1 µM) | pIC50 (second compound 3.16 µM) | pIC50 (second compound 10 µM)
inactive: viability, T/C (second compound 0.0316 µM, first compound 0.000316 µM) 110% | viability, T/C (second compound 0.0316 µM, first compound 0.001 µM) 123% | viability, T/C (second compound 0.0316 µM, first compound 0.00316 µM) 121% | viability, T/C (second compound 0.0316 µM, first compound 0.01 µM) 103% | viability, T/C [1] 99.1% | viability, T/C [2] 117% | viability, T/C (second compound 0.1 µM, first compound 0.000316 µM) 108% | viability, T/C (second compound 0.1 µM, first compound 0.001 µM) 148% | viability, T/C (second compound 0.1 µM, first compound 0.00316 µM) 105% | viability, T/C (second compound 0.1 µM, first compound 0.01 µM) 110% | viability, T/C [3] 98.7% | viability, T/C [4] 126% | viability, T/C (second compound 0.316 µM, first compound 0.000316 µM) 108% | viability, T/C (second compound 0.316 µM, first compound 0.001 µM) 114% | viability, T/C (second compound 0.316 µM, first compound 0.00316 µM) 99.4% | viability, T/C (second compound 0.316 µM, first compound 0.01 µM) 99.3% | viability, T/C [5] 101% | viability, T/C [6] 126% | viability, T/C (second compound 1 µM, first compound 0.000316 µM) 92.6% | viability, T/C (second compound 1 µM, first compound 0.001 µM) 118% | viability, T/C (second compound 1 µM, first compound 0.00316 µM) 106% | viability, T/C (second compound 1 µM, first compound 0.01 µM) 86.8% | viability, T/C [7] 102% | viability, T/C [8] 108% | viability, T/C (second compound 3.16 µM, first compound 0.000316 µM) 79.7% | viability, T/C (second compound 3.16 µM, first compound 0.001 µM) 96.2% | viability, T/C (second compound 3.16 µM, first compound 0.00316 µM) 77.9% | viability, T/C (second compound 3.16 µM, first compound 0.01 µM) 94.1% | viability, T/C [9] 89.2% | viability, T/C [10] 103% | viability, T/C (second compound 10 µM, first compound 0.000316 µM) 71.7% | viability, T/C (second compound 10 µM, first compound 0.001 µM) 85.9% | viability, T/C (second compound 10 µM, first compound 0.00316 µM) 66.5% | viability, T/C (second compound 10 µM, first compound 0.01 µM) 66.3% | viability, T/C [11] 80.9% | viability, T/C [12] 89.3%

O=C(c1cc(Cc2n[nH]c(=O)c3ccccc23)ccc1F)N1CCN(C(=O)C2CC2)CC1 + CC1OCC2(CCN(c3cnc(Sc4ccnc(N)c4Cl)c(N)n3)CC2)C1N
< 5.00: pIC50 (second compound 0.0316 µM) | pIC50 (second compound 0.1 µM) | pIC50 (second compound 0.316 µM) | pIC50 (second compound 1 µM) | pIC50 (second compound 3.16 µM) | pIC50 (second compound 10 µM)
inactive: viability, T/C [1] 102% | viability, T/C [2] 117% | viability, T/C (second compound 0.0316 µM, first compound 0.316 µM) 100% | viability, T/C (second compound 0.0316 µM, first compound 1 µM) 98.7% | viability, T/C (second compound 0.0316 µM, first compound 3.16 µM) 101% | viability, T/C (second compound 0.0316 µM, first compound 10 µM) 132% | viability, T/C [3] 101% | viability, T/C [4] 101% | viability, T/C (second compound 0.1 µM, first compound 0.316 µM) 104% | viability, T/C (second compound 0.1 µM, first compound 1 µM) 108% | viability, T/C (second compound 0.1 µM, first compound 3.16 µM) 109% | viability, T/C (second compound 0.1 µM, first compound 10 µM) 94.6% | viability, T/C [5] 102% | viability, T/C [6] 119% | viability, T/C (second compound 0.316 µM, first compound 0.316 µM) 99% | viability, T/C (second compound 0.316 µM, first compound 1 µM) 101% | viability, T/C (second compound 0.316 µM, first compound 3.16 µM) 88% | viability, T/C (second compound 0.316 µM, first compound 10 µM) 89.4% | viability, T/C [7] 85.4% | viability, T/C [8] 110% | viability, T/C (second compound 1 µM, first compound 0.316 µM) 95.6% | viability, T/C (second compound 1 µM, first compound 1 µM) 87.2% | viability, T/C (second compound 1 µM, first compound 3.16 µM) 86.6% | viability, T/C (second compound 1 µM, first compound 10 µM) 88.4% | viability, T/C [9] 74.2% | viability, T/C [10] 96.3% | viability, T/C (second compound 3.16 µM, first compound 0.316 µM) 91.8% | viability, T/C (second compound 3.16 µM, first compound 1 µM) 89.8% | viability, T/C (second compound 3.16 µM, first compound 3.16 µM) 98.1% | viability, T/C (second compound 3.16 µM, first compound 10 µM) 90.8% | viability, T/C [11] 72.5% | viability, T/C [12] 79.7% | viability, T/C (second compound 10 µM, first compound 0.316 µM) 79.9% | viability, T/C (second compound 10 µM, first compound 1 µM) 67.6% | viability, T/C (second compound 10 µM, first compound 3.16 µM) 81.5% | viability, T/C (second compound 10 µM, first compound 10 µM) 76.4%
